Read-outs that look alike come from different tables or passages of the source.
Experiments:
[1] = biological target: in vitro solubilized EmrE (Escherichia coli, UniProt P23895); details: cited from earlier work
[2] = biological target: T1, EmrE (dimeric, detergent-free OspA-EmrE-ApoAI*) (UniProt P02647+P23895); test: Ligand binding by tryptophan fluorescence quenching, in vivo solubilized EmrE; design: species or system E. coli; details: for binding affinity of OspA-EmrE-ApoAI* compared to detergent-solubilized EmrE: 10 μM protein, EmrE comparator in DDM buffer
T1 construct: made in house; host or cells: E. coli BL21(DE3), pET28a
Protocol: Fluorescence spectra of protein samples were collected using a Fluorolog-Tau-3 time-resolved spectrofluorometer (Horiba). Protein concentration of OspA-EmrE-ApoAI* in SEC buffer and EmrE in DDM containing buffer (20 mM Tris-HCl, pH 7.5, 150 mM NaCl, and 0.08% w/v DDM) was 10 μM. Fluorescence spectra using a 295-nm excitation were collected after each volume of ligand. A small magnetic stir bar was added to the 1-cm path-length quartz cuvette containing either the sample or buffer. The stirring speed was set such that the surface was not noticeably disturbed. Approximately 1 min was allowed between the addition of ligand and the beginning of spectra collection. A total of 3 replicates were performed with the first sample preparation to control for experimental variability. After this, only one experimental replicate of the following second and third sample preparations were performed. Thus, each ligand-binding curve reflects the average of 3 replicates from 3 different protein preparations to control for biological and preparation variability. A 10-nm slit width was used for both excitation and emission. The interval was set at 2.0 nm and the integration time at 0.1 s. Only one scan of the emission between 300 and 400 nm was collected per titration. […] Quenching of fluorescence was recorded and plotted using GraphPad PRISM 6.
It was next determined whether EmrE that had been solubilized by fusion to ApoAI* was able to bind to known ligands. […] There are a total of 14 aromatic amino acids in EmrE (4 tryptophans, 5 tyrosines, and 5 phenylalanines), some of which participate in ligand binding and protein stability and permit determination of binding constants based on fluorescence quenching (Bay et al., “Spectroscopic Analysis of Small Multidrug Resistance Protein EmrE in the Presence of Various Quaternary Cation Compounds,” Biochim. Biophys. Acta 1818:1318-31 (2012), which is hereby incorporated by reference in its entirety). The ligand binding activity of dimeric, detergent-free OspA-EmrE-ApoAI* was measured and compared to detergent-solubilized EmrE. […]

[3] = biological target: T2, cytochrome P450c17 (17α-hydroxylase/17,20-lyase; CYP17A1) (Homo sapiens, UniProt P05093); details: cited from earlier work
T2 sequence (P05093 1-508): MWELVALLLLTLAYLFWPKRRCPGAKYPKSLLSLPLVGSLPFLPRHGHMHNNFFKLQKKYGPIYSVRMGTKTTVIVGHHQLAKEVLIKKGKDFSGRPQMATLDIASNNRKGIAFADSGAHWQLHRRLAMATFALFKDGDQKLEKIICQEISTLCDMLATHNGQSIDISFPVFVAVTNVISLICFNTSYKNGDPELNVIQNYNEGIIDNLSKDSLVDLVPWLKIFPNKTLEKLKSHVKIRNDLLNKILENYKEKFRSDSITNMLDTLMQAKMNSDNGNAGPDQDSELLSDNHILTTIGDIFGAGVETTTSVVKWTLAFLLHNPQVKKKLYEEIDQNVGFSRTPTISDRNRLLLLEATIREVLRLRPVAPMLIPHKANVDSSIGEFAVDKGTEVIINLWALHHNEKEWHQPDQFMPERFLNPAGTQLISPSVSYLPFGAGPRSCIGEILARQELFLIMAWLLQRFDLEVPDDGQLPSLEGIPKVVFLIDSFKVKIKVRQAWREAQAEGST

CYP17A1 = biological target: T3, CYP17A1 (Homo sapiens, UniProt P05093); test: Lyase assay: augmentation of CYP17A1 lyase activity by cyt b5 variants; assay type: biochemical
T3 construct: microsomes containing native CYP17A1 (5 pmol); made in house; host or cells: transformed yeast (microsomes)
T3 sequence (P05093 1-508): T2 sequence (P05093 1-508)
Protocol: In a 2-ml polypropylene tube, microsomes containing native CYP17A1 (5 pmol) and cytochrome P450 oxidoreductase ([…]), at room temperature for 5 min before adding substrate. The reaction mixture was then diluted to 0.2 ml with 50 mM potassium phosphate buffer (pH 7.4), and substrate 17-hydroxypregnelonone (17-P5; 5 μM with 80,000 CPM in methanol, 2% of incubation volume) was added. The resulting mixture was pre-incubated at 37° C. for 3 min before adding NADPH (1 mM) and incubating at 37° C. for another 20 min. The reaction mixture was extracted with 1 ml dichloromethane, and the organic phase was dried under nitrogen flow. Steroids were analyzed using an Agilent 1260 Infinity HPLC system with UV detector and β-RAM4 in-line scintillation counter (LabLogic, Brandon, Fla.). Extracted steroid products were dissolved in 20 μl of methanol, and 5 μl injections were resolved with a 50×2.1 mm, 2.6 μm, C8 Kinetex column (Phenomenex, Torrance, Calif.), equipped with a guard column at a flow rate of 0.4 mL min^−1. A methanol/water linear gradient was used: 27% methanol from 0 to 0.5 min, 39% to 16 min, 44% to 20 min, 60% to 22 min, 71% to 30 min, 75% to 30.5 min, 27% to 33 min. Products were identified by retention times of external standards chromatographed at the beginning and ends of the experiments. The flow rate of the scintillation cocktail (Bio-SafeII, Research Products International, Mount Prospect, Ill.) was 1.2 mL min^−1, and the data were processed with Laura4 software (LabLogic).

With `C[n+]1ccc(-c2cc[n+](C)cc2)cc1` [MV, methyl viologen] as the molecule, how does the Kd ([1]; in vitro solubilized EmrE in dodecylmaltoside) read?
Its Kd is 46.2 µM.

What about the Kd ([1]; in vitro solubilized EmrE in small unilamellar vesicles) of the same molecule?
The Kd was 38.2 µM.

What about the Kd ([1]; in vitro solubilized EmrE in sodium dodecyl sulphate) of the same molecule?
The Kd was 5.4 µM.

And the “binding affinity of OspA-EmrE-ApoAI* compared to detergent-solubilized EmrE” value [2]?
Its value is “higher”.

And the Kd ([2]; in vivo solubilized EmrE, detergent-free)?
The Kd was 48 µM.

With `c1ccc([P+](c2ccccc2)(c2ccccc2)c2ccccc2)cc1` [TPP+, tetraphenylphosphonium] as the molecule, how does the “binding affinity of OspA-EmrE-ApoAI* compared to detergent-solubilized EmrE” value [2] read?
The value was “higher”.

B1: detergent-solubilized cyt b5: wild-type human cytochrome b5 that had been detergent solubilized (protein)
chain: MAEQSDEAVKYYTLEEIQKHNHSKSTWLILHHKVYDLTKFLEEHPGGEEVLREQAGGDATENFEDVGHSTDAREMSKTFIIGELHPDDRPKLNKPPETLITTIDSSSSWWTNWVIPAISAVAVALMYRLYMAED
Which “stimulation of 17,20-lyase activity” value ([3]; recombinant cyt b5 from E. coli, literature) does the source give for B1 here?
Its value is “stimulated 17,20-lyase activity”.

And the “stimulation of lyase activity compared to the in vivo solubilized version” value (CYP17A1)?
The value was “slightly better stimulator of lyase activity”.

What about the “stimulation of CYP17A1 lyase activity (DHEA formed from 17-P5)” value (CYP17A1; 5-25 pmol cyt b5 variant) of the same molecule?
The value was “plateaued”.

And the “stimulation of CYP17A1 lyase activity” value (CYP17A1; at slightly lower concentrations)?
The value was “dose-dependent stimulation”.

B2: cyt b5: human cytochrome b5, 134-residue bitopic membrane protein (protein, UniProt P00167 1-134, looked up)
chain: B1 chain
modifications: full-length
notes: human cytochrome b5, 134-residue bitopic membrane protein
For B2, which “increase of the rate of the 17,20-lyase reaction” value ([3]; a molar equivalent of cyt b5) is on record?
The value was 10 fold.

Source: patent US10961286B2, “Nucleic acids, vectors, host cells, and methods for recombinantly producing water-soluble membrane proteins” (CORNELL UNIVERSITY, priority 2014, dated 2021)
